Measured values from PMC11864979, “First-in-class ultralong-target-residence-time p38α inhibitors as a mitosis-targeted therapy for colorectal cancer” (Nature Cancer, 2025).
Where “and” joins values, the source holds several entries; their conditions need not be identical. Equal values may be shown once. Read-outs that look alike come from different tables or passages of the source.

Legend:
[1] = target: T1, recombinant human active p38α protein, MK2 and Wee1 (Homo sapiens, UniProt Q16539); assay: p38α–Wee1 kinase assay (western blot); assay type: biochemical; settings: 1 µM
T1 construct: purchased Abcam (p38α, MK2); Novus Biologicals (Wee1) ab271647; ab79910; H00007465-P01
Method: Briefly, 200 ng of corresponding proteins were preincubated with 1 µM 2015 or DMSO in a kinase assay buffer (Abcam, ab189135; total volume, 100 µL) for 30 min at 37 °C. Kinase activity was induced with 20 µM ATP. Following a 30-min incubation at 37 °C, the reaction was stopped by protein inactivation (95 °C, 5 min in Laemmli buffer). The antibodies and dilutions for immunoblotting are listed in the Nature Portfolio Reporting Summary.

[2] = cell viability in healthy human colon organoids SCC311; assay type: cell-based; settings: female, human, ED Fig. 10f, replicates
Method: (§1) Primary tumor material was chopped, washed in ice-cold medium and transferred into basic medium (Supplementary Table 17), supplemented with 2.5 mg ml^−1 collagenase II (Thermo Fisher Scientific), 2.5 mg ml^−1 collagenase XI (Sigma-Aldrich), 1 mg ml^−1 Dispase II (Sigma-Aldrich), 100 µg ml^−1 DNase I and 10.5 µM Y-27632 dihydrochloride (Invitrogen). Tumor digestion was performed at 37 °C and stopped by adding medium containing 10% FBS. The mixture was centrifuged for 5 min at 300g. Red blood cells were removed with ACK lysing buffer (Thermo Fisher Scientific; 5 min at room temperature) and the pellet was resuspended in medium. Approximately 1,000 cells were resuspended and plated in 50 µl of Cultrex RGF BME, type 2 (R&D Systems). The ascites material was pelleted by centrifugation at 300g and washed three times with ice-cold PBS. Human CRC organoids were cultured in human CRC medium (Supplementary Table 17) at 37 °C and 7% CO2. Within the first week, the medium was supplemented with 10.5 µM Y-27632 dihydrochloride (Invitrogen). The human colon organoids (SCC311 and SCC321) were purchased from Sigma-Aldrich and cultured in human colon medium (Supplementary Table 17) at 37 °C and 7% CO2. They were derived from participants with the following sex and age: […].
(§2) For in vitro treatment studies, organoids were mechanically dissociated and digested using TrypLE supplemented with 100 µg ml^−1 DNaseI and 10.5 µM Y-27632 dihydrochloride (Invitrogen) at 37 °C. A total of 1,000–2,000 single cells were plated per well in white 96-well plates (Greiner) in culture medium containing 10% GFR Matrigel or Cultrex BME. The treatment with doxycycline (5 µg ml^−1), pharmacological inhibitors or corresponding volumes of DMSO was started 24 h after plating. Doxycycline was obtained from Sigma-Aldrich. […] Cell viability was measured by means of CellTiter-Glo 3D or CellTiter-Glo 2.0 reagent (Promega) according to the manufacturers’ instructions and the Infinite M Plex reader (Tecan, i-control version 3.9.1 software). Results were normalized to vehicle (DMSO) or to shNC. For cell-doubling assays, the cell number was quantified at the corresponding time points using Guava EasyCyte flow cytometer (Luminex, CytoSoft v5.2 software).

[3] = tested on: SCC311 human colon organoids; assay: as above; assay type: cell-based; settings: for Cell viability (%): ED Fig. 10f, replicates
Method: as §1, §2

340 wild-type kinases [4] = target: T2, 340 wild-type kinases (Homo sapiens, UniProt O60566); assay: selectivity profiling in a panel of 340 wild-type kinases (Reaction Biology Europe); assay type: binding
T2 construct: purchased Reaction Biology Europe

340 wild-type kinases [5] = target: T3, 340 wild-type kinases (Homo sapiens, UniProt P16591); assay: as above; assay type: binding
T3 construct: purchased Reaction Biology Europe

340 wild-type kinases [6] = target: T4, 340 wild-type kinases (Homo sapiens, UniProt P49137); assay: as above; assay type: binding
T4 construct: purchased Reaction Biology Europe

340 wild-type kinases [7] = target: T5, 340 wild-type kinases (Homo sapiens, UniProt Q13882); assay: as above; assay type: binding
T5 construct: purchased Reaction Biology Europe

340 wild-type kinases [8] = target: T6, 340 wild-type kinases (Homo sapiens, UniProt Q9H2K8); assay: as above; assay type: binding
T6 construct: purchased Reaction Biology Europe
T6 sequence (Q9H2K8 1-898): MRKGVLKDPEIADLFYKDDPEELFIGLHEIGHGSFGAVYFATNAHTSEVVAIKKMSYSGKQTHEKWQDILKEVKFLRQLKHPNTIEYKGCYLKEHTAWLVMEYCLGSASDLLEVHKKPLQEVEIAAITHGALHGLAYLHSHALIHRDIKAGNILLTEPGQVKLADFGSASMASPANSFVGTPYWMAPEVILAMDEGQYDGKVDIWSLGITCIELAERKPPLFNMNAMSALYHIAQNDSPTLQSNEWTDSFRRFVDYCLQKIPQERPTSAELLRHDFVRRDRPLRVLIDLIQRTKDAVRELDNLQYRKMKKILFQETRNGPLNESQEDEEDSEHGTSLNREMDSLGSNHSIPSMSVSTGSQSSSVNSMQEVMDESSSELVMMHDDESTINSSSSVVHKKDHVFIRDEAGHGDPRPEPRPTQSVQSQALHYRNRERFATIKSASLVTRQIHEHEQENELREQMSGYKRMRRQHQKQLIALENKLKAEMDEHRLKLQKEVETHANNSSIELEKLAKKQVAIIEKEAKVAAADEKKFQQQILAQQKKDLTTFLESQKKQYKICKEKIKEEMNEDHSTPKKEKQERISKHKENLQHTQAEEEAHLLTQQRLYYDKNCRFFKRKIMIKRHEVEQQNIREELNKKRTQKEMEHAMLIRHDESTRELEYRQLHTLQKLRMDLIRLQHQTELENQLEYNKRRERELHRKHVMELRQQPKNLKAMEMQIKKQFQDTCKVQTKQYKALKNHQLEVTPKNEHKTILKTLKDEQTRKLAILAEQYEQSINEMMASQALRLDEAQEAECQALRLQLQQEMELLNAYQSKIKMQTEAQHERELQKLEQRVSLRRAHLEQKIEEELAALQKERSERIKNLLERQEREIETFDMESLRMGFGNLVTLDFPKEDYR

T5 sequence (Q13882 whole entry): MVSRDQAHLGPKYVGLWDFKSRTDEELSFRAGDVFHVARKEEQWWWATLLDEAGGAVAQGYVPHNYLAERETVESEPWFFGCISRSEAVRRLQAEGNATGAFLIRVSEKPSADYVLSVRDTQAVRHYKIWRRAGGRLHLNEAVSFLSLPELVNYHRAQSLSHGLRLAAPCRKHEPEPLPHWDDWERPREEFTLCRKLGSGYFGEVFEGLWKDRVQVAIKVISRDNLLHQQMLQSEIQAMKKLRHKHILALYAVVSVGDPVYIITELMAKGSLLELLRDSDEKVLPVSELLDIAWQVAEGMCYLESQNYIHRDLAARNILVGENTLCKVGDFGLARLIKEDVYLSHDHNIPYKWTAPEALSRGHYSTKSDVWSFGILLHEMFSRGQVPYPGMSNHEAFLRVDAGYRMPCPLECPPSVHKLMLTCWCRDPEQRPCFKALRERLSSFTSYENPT
T4 sequence (P49137 whole entry): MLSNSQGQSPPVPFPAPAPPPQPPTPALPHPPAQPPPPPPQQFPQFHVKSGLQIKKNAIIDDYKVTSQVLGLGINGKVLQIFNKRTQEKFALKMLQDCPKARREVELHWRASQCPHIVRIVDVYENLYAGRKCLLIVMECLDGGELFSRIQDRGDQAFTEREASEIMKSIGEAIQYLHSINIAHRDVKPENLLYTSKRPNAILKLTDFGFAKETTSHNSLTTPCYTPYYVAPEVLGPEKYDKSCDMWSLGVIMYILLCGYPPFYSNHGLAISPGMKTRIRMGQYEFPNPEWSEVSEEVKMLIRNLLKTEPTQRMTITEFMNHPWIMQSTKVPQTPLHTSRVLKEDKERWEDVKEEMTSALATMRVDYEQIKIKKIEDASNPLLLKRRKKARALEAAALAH
T2 sequence (O60566 whole entry): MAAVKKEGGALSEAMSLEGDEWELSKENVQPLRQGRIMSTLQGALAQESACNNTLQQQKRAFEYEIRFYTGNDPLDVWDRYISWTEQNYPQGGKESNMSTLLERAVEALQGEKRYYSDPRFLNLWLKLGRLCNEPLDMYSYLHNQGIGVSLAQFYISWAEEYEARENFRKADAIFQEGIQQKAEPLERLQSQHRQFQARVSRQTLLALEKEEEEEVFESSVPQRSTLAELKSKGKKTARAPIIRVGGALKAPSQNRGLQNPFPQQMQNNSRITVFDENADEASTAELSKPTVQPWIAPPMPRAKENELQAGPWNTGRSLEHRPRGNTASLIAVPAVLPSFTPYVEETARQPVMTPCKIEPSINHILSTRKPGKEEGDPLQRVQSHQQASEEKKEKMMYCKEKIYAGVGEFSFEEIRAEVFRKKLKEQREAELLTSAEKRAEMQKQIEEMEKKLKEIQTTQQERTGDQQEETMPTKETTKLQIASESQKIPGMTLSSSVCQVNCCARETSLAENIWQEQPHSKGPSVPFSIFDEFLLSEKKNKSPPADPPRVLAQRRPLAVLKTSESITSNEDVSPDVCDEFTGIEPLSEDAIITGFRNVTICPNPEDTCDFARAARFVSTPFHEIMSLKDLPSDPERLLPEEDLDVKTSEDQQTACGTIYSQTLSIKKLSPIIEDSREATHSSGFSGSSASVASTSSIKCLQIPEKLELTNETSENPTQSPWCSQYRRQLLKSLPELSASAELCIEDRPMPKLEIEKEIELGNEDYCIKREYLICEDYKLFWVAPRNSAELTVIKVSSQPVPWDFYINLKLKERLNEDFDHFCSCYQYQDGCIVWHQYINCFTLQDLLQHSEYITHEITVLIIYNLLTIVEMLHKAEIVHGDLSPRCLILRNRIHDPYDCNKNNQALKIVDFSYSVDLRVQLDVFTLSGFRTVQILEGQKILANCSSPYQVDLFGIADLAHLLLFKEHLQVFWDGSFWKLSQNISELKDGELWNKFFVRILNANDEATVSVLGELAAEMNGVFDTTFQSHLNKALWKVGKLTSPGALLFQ
T3 sequence (P16591 whole entry): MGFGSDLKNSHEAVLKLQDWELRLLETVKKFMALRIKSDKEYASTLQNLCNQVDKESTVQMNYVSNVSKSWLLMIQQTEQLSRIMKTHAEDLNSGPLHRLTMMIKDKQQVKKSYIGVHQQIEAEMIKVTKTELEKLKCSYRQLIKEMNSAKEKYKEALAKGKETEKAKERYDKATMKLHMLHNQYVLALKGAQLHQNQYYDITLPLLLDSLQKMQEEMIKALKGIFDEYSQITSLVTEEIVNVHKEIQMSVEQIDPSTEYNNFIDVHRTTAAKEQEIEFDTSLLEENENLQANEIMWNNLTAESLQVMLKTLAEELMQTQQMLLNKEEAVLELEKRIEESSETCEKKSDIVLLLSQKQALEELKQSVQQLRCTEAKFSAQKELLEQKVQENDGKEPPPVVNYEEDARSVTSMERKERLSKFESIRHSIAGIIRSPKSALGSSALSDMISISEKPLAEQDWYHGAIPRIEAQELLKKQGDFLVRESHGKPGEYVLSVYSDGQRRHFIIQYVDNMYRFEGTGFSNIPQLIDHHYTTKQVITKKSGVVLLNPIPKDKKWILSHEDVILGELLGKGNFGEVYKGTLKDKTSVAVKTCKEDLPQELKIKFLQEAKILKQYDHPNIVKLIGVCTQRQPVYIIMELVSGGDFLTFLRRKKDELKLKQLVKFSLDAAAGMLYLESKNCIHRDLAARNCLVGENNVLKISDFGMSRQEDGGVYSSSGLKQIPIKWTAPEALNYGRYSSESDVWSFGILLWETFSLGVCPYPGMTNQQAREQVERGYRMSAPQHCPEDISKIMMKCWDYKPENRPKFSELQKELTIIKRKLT
T1 sequence (Q16539 whole entry): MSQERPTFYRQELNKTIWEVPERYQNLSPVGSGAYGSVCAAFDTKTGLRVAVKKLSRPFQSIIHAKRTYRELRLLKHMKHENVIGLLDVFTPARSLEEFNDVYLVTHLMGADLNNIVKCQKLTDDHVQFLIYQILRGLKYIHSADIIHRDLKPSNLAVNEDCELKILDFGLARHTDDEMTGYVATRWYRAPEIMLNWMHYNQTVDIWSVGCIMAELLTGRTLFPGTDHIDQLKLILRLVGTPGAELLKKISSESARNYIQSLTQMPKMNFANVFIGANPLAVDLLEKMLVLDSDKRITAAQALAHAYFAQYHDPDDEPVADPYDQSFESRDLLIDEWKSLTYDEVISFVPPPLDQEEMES

Question: For `CNC(=O)c1ccc2c(c1)C(=O)c1ccc(Nc3ccc(F)c(NC(=O)C4CC4)c3)cc1CC2` [Compound 2015], which “p38α–MK2-mediated phosphorylation of Wee1 at S642 (in words)” value [1] is on record?
Answer: The value was “blocked”.

Question: And the viability at 5 µM ([2]; healthy human colon organoids SCC311, 2015 0,5 µM)?
Answer: The viability at 5 µM was 96%.

Question: And the viability at 25 µM ([2]; healthy human colon organoids SCC311, 2015 0,25 µM)?
Answer: The viability at 25 µM was 113%.

Question: What about the “Cell viability (%)” value ([3]; 2015 0,5 µM, 5 µM) of the same compound?
Answer: Its value is 94.54% and 77.32%.

Question: What about the “Cell viability (%)” value ([3]; 2015 0,25 µM, 25 µM) of the same compound?
Answer: Its value is 97.45% and 99.37%.

Question: And the “Cell viability (%)” value ([3]; 2015 1 µM)?
Answer: Its value is 74.60% and 77.39% and 95.83%.

Question: And the “response of healthy human colon culture (in words)” value ([3]; SCC311, 4 d)?
Answer: Its value is “only a very weak response”.

Question: What about the remaining activity at 0.2 µM (340 wild-type kinases [4]; 0.2 µM 2015, read-out: BUB1B residual activity) of the same compound?
Answer: The remaining activity at 0.2 µM was 94.1%.

Question: And the remaining activity at 1 µM (340 wild-type kinases [4]; 1 µM 2015, read-out: BUB1B residual activity)?
Answer: The remaining activity at 1 µM was 95.8%.

Question: And the remaining activity at 0.2 µM (340 wild-type kinases [4]; BUB1B, 0.2 µM, read-out: residual activity)?
Answer: The remaining activity at 0.2 µM was 94.1%.

Question: And the remaining activity at 1 µM (340 wild-type kinases [4]; BUB1B, 1 µM, read-out: residual activity)?
Answer: Its remaining activity at 1 µM is 95.8%.

Question: What about the remaining activity at 0.2 µM (340 wild-type kinases [5]; 0.2 µM 2015, read-out: FER residual activity) of the same compound?
Answer: Its remaining activity at 0.2 µM is 125%.

Question: What about the remaining activity at 1 µM (340 wild-type kinases [5]; 1 µM 2015, read-out: FER residual activity) of the same compound?
Answer: The remaining activity at 1 µM was 102%.

Question: And the remaining activity at 0.2 µM (340 wild-type kinases [5]; FER, 0.2 µM, read-out: residual activity)?
Answer: The remaining activity at 0.2 µM was 125%.

Question: And the remaining activity at 1 µM (340 wild-type kinases [5]; FER, 1 µM, read-out: residual activity)?
Answer: The remaining activity at 1 µM was 102%.

Question: And the remaining activity at 0.2 µM (340 wild-type kinases [6]; 0.2 µM 2015, read-out: MAPKAPK2 residual activity)?
Answer: Its remaining activity at 0.2 µM is 153%.

Question: And the remaining activity at 1 µM (340 wild-type kinases [6]; 1 µM 2015, read-out: MAPKAPK2 residual activity)?
Answer: Its remaining activity at 1 µM is 118%.

Question: What about the remaining activity at 0.2 µM (340 wild-type kinases [6]; MAPKAPK2, 0.2 µM, read-out: residual activity) of the same compound?
Answer: The remaining activity at 0.2 µM was 153%.

Question: And the remaining activity at 1 µM (340 wild-type kinases [6]; MAPKAPK2, 1 µM, read-out: residual activity)?
Answer: The remaining activity at 1 µM was 118%.

Question: What about the remaining activity at 0.2 µM (340 wild-type kinases [7]; 0.2 µM 2015, read-out: BRK residual activity) of the same compound?
Answer: The remaining activity at 0.2 µM was 100%.

Question: And the remaining activity at 1 µM (340 wild-type kinases [7]; 1 µM 2015, read-out: BRK residual activity)?
Answer: The remaining activity at 1 µM was 108%.

Question: What about the remaining activity at 0.2 µM (340 wild-type kinases [7]; BRK, 0.2 µM, read-out: residual activity) of the same compound?
Answer: The remaining activity at 0.2 µM was 100%.

Question: What about the remaining activity at 1 µM (340 wild-type kinases [7]; BRK, 1 µM, read-out: residual activity) of the same compound?
Answer: The remaining activity at 1 µM was 108%.

Question: And the remaining activity at 0.2 µM (340 wild-type kinases [8]; 0.2 µM 2015, read-out: TAOK3 residual activity)?
Answer: The remaining activity at 0.2 µM was 101%.

Question: And the remaining activity at 1 µM (340 wild-type kinases [8]; 1 µM 2015, read-out: TAOK3 residual activity)?
Answer: Its remaining activity at 1 µM is 98.6%.

Question: And the remaining activity at 0.2 µM (340 wild-type kinases [8]; TAOK3, 0.2 µM, read-out: residual activity)?
Answer: The remaining activity at 0.2 µM was 101%.

Question: What about the remaining activity at 1 µM (340 wild-type kinases [8]; TAOK3, 1 µM, read-out: residual activity) of the same compound?
Answer: Its remaining activity at 1 µM is 98.6%.
